This note sets out measurements from US8569372B2, “Method for preventing or treating a disease, disorder or condition induced by retina ischemia” (priority 2011, dated 2013).

Each structure is given as a SMILES string.

Type in all cases: in vivo, Wistar rats
In one series the test system is VEGF mRNA. Nature of the series: Real-time PCR of retinal mRNA after ischaemia/reperfusion: VEGF. The conditions noted are these: 100 μM SAC pre-treatment, 24 hours after I/R; control 0.36±0.07, vehicle 1.10±0.20; n=6. How it is done:
(§1) The rats (200-250 g) were anaesthetized and placed in a stereotaxic frame. The anterior chamber of one eye was cannulated with a 30-gauge needle connected to a 0.9% saline reservoir; this caused a high IOP (HIOP) of 120 mmHg for 60 minutes. Eye fundus whitening and a low ERG response confirmed induction of an ischaemic insult. A sham procedure was carried out on the controls. Drug administration involved the pre-administration (15-minute before 60-minute HIOP induced retinal ischaemia) of SAC (25, 50, 100 μM) or vehicle (saline; control). The ischemic eye of each test rat was treated with or without a single intravitreous injection of 5 μl of the test compound. […] The levels of Thy-1, HIF-1 Alpha, VEGF and MMP-9 mRNAs present in the retinas were determined using a real-time PCR technique. […] Relative quantification (a comparative method) was performed using the house keeping gene Beta-actin as the internal standard. This process allows the normalized quantification of the mRNA target (Ct) and takes into account the differences in the amount of total RNA added to each reaction (ΔCt). The relative HIF-1 Alpha/VEGF/MMP-9 expression changes were calculated as fold changes relative to the control with respect to the calibrator (ΔΔCt), which was represented by the control retina. […] The data obtained for each treatment were pooled, and a total percentage change relative to the control was calculated. […]
A general note: Quantitative PCR measures a nucleic acid by following its amplification.

In series [1] the test system is non-ischaemic (normal) eye. Nature of the series: Flash ERG b-wave of the non-ischaemic (normal) eye given SAC (adverse effects). The settings on record: 100 μM SAC, n=3. How it is done:
(§2) Drug administration involved the pre-administration (15-minute before 60-minute HIOP induced retinal ischaemia) of SAC (25, 50, 100 μM) or vehicle (saline; control). The ischemic eye of each test rat was treated with or without a single intravitreous injection of 5 μl of the test compound. In addition, SAC (100 μM) was administered to the non-ischaemic eye (normal) to see whether SAC has any adverse effects. In both cases, the paired normal eye was untreated.
(§3) Flash ERG recordings were performed on all rats before retinal ischaemia (day 0), as well as at 1, 3, 5, and 7 days after ischaemia and treatment with or without the defined chemicals. The animals were dark adapted and anaesthetized to do this. A strobe was placed 2 cm in front of the animal to provide a stimulus of 0.5 Hz. Fifteen consecutive responses were recorded at two-second intervals and at 10 kHz; the responses were amplified and averaged using an amplifier P511/regulated power supply RPS 107/stimulator PS22 (Grass-Telefactor; Astro-Med Inc., West Warwick, R.I., USA). For comparative purposes, the b-wave ratio, namely the b-wave amplitude of the ischaemic/sham-operation eye or the untreated/SAC-treated non-ischaemic (normal) eye as compared with that of the contralateral normal eye, was calculated.

The subject of a further series is Thy-1 mRNA. Nature of the series: Real-time PCR of retinal mRNA after ischaemia/reperfusion: Thy-1. The conditions noted are these: 100 μM SAC pre-treatment, 24 hours after I/R; control 3.28±1.09, vehicle 0.29±0.07; n=6. How it is done: as §1
Series [2] has as its system ischaemic retina (HIOP induced retinal ischaemia/reperfusion). Nature of the series: Flash ERG b-wave after high IOP induced retinal ischaemia/reperfusion, intravitreous pre-treatment. The settings on record: for ERG b-wave ratio (ischaemic eye vs. fellow normal eye): n=6; for pre-ischaemia b-wave ratio baseline (day 0): day 0 baseline. How it is done:
All investigations involving the use of animals conformed to the Association for Research in Vision and Ophthalmology Statement for the Use of Animals in Ophthalmology and Vision Research and were approved by the Institutional Review Board of Cheng Hsin General Hospital (Taipei, Taiwan). The six-week-old Wistar rats were kept in an animal house where the humidity was 40-60% and the temperature 19-23° C. They were kept on a 12-hour light/dark cycle with 12 to 15 air changes/hour. The animals were provided with food and water ad libitum.
The rats (200-250 g) were anaesthetized and placed in a stereotaxic frame. The anterior chamber of one eye was cannulated with a 30-gauge needle connected to a 0.9% saline reservoir; this caused a high IOP (HIOP) of 120 mmHg for 60 minutes. Eye fundus whitening and a low ERG response confirmed induction of an ischaemic insult. A sham procedure was carried out on the controls.
as §2, §3

In the case of `C=CCSC[C@H](N)C(=O)O` [SAC, S-allyl L-cysteine], in the series on VEGF mRNA, the “VEGF mRNA ratio in the retina” value was found to be 0.50±0.06. Moreover, the “b-wave amplitude (ratio) of the non-ischemic (normal) eye vs. the fellow normal eye” value in series [1] (day 0) stood at 1.11±0.05; in series [1] (day 1), 1.05±0.06; in series [1] (day 5) it was 1.06±0.12; in series [1] (day 7) it was 0.91±0.09. Also, the “adverse effect on the b-wave amplitude (ratio) of the non-ischemic (normal) eye” value in series [1] (days 0 to 7) is reported as “no significant adverse effect”. Further, the “Thy-1:β-actin mRNA ratio in the retina” value in the series on Thy-1 mRNA was 1.25±0.30. The “ERG b-wave ratio (ischaemic eye vs. fellow normal eye)” value in series [2] (25 μM SAC, day 1 after I/R, vehicle 0.19±0.03) is on record as 0.47±0.10; in series [2] (25 μM SAC, day 3 after I/R, vehicle 0.18±0.05), 0.44±0.11; in series [2] (25 μM SAC, day 5 after I/R, vehicle 0.24±0.05), 0.54±0.09; in series [2] (25 μM SAC, day 7 after I/R, vehicle 0.18±0.02), 0.55±0.06; in series [2] (50 μM SAC, day 1 after I/R, vehicle 0.19±0.03) it was 0.56±0.03; in series [2] (50 μM SAC, day 3 after I/R, vehicle 0.18±0.05), 0.60±0.05. For the same compound, the “ERG b-wave ratio (ischaemic eye vs. fellow normal eye)” value in series [2] (50 μM SAC, day 5 after I/R, vehicle 0.24±0.05) came to 0.65±0.02; in series [2] (50 μM SAC, day 7 after I/R, vehicle 0.18±0.02) it was 0.61±0.05; in series [2] (100 μM SAC, day 1 after I/R, vehicle 0.19±0.03) it was 0.64±0.04; in series [2] (100 μM SAC, day 3 after I/R, vehicle 0.18±0.05) it was 0.79±0.03; in series [2] (100 μM SAC, day 5 after I/R, vehicle 0.24±0.05) it was 0.84±0.03; in series [2] (100 μM SAC, day 7 after I/R, vehicle 0.18±0.02), 0.84±0.04. Moreover, in series [2] (100 μM SAC intravitreous pre-treatment, 1 day after I/R, sham control 0.35 mV, vehicle 0.08 mV), the ERG b-wave amplitude was found to be 0.24 mV. Also, the “ERG b-wave amplitude, % of the control value” in series [2] (100 μM SAC pre-treatment, 1 day after I/R, vehicle 22.86%) was 68.57 % of the control value. Further, the “pre-ischaemia b-wave ratio baseline (day 0)” value in series [2] (group pre-treated with 25 μM SAC) stood at 1.08±0.07; in series [2] (group pre-treated with 50 μM SAC), 0.98±0.04; in series [2] (group pre-treated with 100 μM SAC), 0.92±0.04.
